In PubChem BioAssay (NCI):
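Briefly, cells in 96-well plates were exposed to five compound concentrations for 48 h, and endpoints were estimated by linear interpolation. Abbreviation: GI50, concentration required for 50% inhibition of growth. TGI marks complete inhibition of growth.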

Experiments:
Experiment in all cases: inhibition of tumour cell growth, NCI panel, 48 h
SNB-75 CNS = tested on: SNB-75 CNS
K-562 leukemia = tested on: K-562 leukemia
SNB-19 CNS = tested on: SNB-19 CNS
HCC-2998 colon = tested on: HCC-2998 colon
UO-31 renal = tested on: UO-31 renal
SK-MEL-5 melanoma = tested on: SK-MEL-5 melanoma
HOP-62 NSCLC = tested on: HOP-62 NSCLC
NCI-H522 lung = tested on: NCI-H522 lung
SF-268 CNS = tested on: SF-268 CNS
BT-549 breast = tested on: BT-549 breast
HL-60(TB) leukemia = tested on: HL-60(TB) leukemia
HOP-92 NSCLC = tested on: HOP-92 NSCLC
PC-3 prostate = tested on: PC-3 prostate
SN12C renal = tested on: SN12C renal
MDA-MB-231 breast = tested on: MDA-MB-231 breast
RPMI-8226 leukemia = tested on: RPMI-8226 leukemia
MALME-3M melanoma = tested on: MALME-3M melanoma
RXF 393 renal = tested on: RXF 393 renal
NCI-H460 lung = tested on: NCI-H460 lung
HT29 colon = tested on: HT29 colon
786-0 renal = tested on: 786-0 renal
MOLT-4 leukemia = tested on: MOLT-4 leukemia
CAKI-1 renal = tested on: CAKI-1 renal
A549 NSCLC = tested on: A549 NSCLC
NCI-H226 lung = tested on: NCI-H226 lung
OVCAR-3 ovarian = tested on: OVCAR-3 ovarian
IGROV1 ovarian = tested on: IGROV1 ovarian
DU-145 prostate = tested on: DU-145 prostate
TK-10 renal = tested on: TK-10 renal
UACC-62 melanoma = tested on: UACC-62 melanoma
OVCAR-5 ovarian = tested on: OVCAR-5 ovarian
NCI-H23 lung = tested on: NCI-H23 lung
U251 CNS = tested on: U251 CNS
COLO 205 colon = tested on: COLO 205 colon
HCT-15 colon = tested on: HCT-15 colon
EKVX NSCLC = tested on: EKVX NSCLC
ACHN renal = tested on: ACHN renal
SW-620 colon = tested on: SW-620 colon
MDA-MB-468 breast = tested on: MDA-MB-468 breast
UACC-257 melanoma = tested on: UACC-257 melanoma
KM12 colon = tested on: KM12 colon
SF-539 CNS = tested on: SF-539 CNS
MCF7 breast = tested on: MCF7 breast
SK-MEL-28 melanoma = tested on: SK-MEL-28 melanoma
T-47D breast = tested on: T-47D breast
OVCAR-8 ovarian = tested on: OVCAR-8 ovarian
A498 renal = tested on: A498 renal
SR leukemia = tested on: SR leukemia
SK-OV-3 ovarian = tested on: SK-OV-3 ovarian
LOX IMVI melanoma = tested on: LOX IMVI melanoma
OVCAR-4 ovarian = tested on: OVCAR-4 ovarian
HCT-116 colon = tested on: HCT-116 colon
CCRF-CEM leukemia = tested on: CCRF-CEM leukemia
SF-295 CNS = tested on: SF-295 CNS

With `COc1cccc(C(N)=Nc2ccc(OCCCCCCn3cncn3)cc2)c1` the GI50 (SNB-75 CNS) was 1.91 µM, the TGI (SNB-75 CNS) was over 100 µM and the GI50 (K-562 leukemia) was 0.475 µM. The TGI (K-562 leukemia) was over 100 µM, the GI50 (SNB-19 CNS) was 4.45 µM and the TGI (SNB-19 CNS) was over 100 µM. The GI50 (HCC-2998 colon) was 2.78 µM, the TGI (HCC-2998 colon) was over 100 µM and the GI50 (UO-31 renal) was 4.51 µM. The TGI (UO-31 renal) was over 100 µM, the GI50 (SK-MEL-5 melanoma) was 1.47 µM and the TGI (SK-MEL-5 melanoma) was 10.2 µM. For the same compound, the GI50 (HOP-62 NSCLC) was 4.13 µM, the TGI (HOP-62 NSCLC) was over 100 µM and the GI50 (NCI-H522 lung) was 1.08 µM. The TGI (NCI-H522 lung) was 3.96 µM, the GI50 (SF-268 CNS) was 4.3 µM and the TGI (SF-268 CNS) was 86.2 µM. The GI50 (BT-549 breast) was 0.957 µM, the TGI (BT-549 breast) was over 100 µM and the GI50 (HL-60(TB) leukemia) was 0.567 µM. The TGI (HL-60(TB) leukemia) was 42.9 µM, the GI50 (HOP-92 NSCLC) was 4.13 µM and the TGI (HOP-92 NSCLC) was over 100 µM. The GI50 (PC-3 prostate) was 1.86 µM, the TGI (PC-3 prostate) was over 100 µM and the GI50 (SN12C renal) was 3.61 µM. It also gave a TGI (SN12C renal) of over 100 µM, a GI50 (MDA-MB-231 breast) of 1.7 µM and a TGI (MDA-MB-231 breast) of 57.6 µM. For the same compound, the GI50 (RPMI-8226 leukemia) was 2.82 µM, the TGI (RPMI-8226 leukemia) was over 100 µM and the GI50 (MALME-3M melanoma) was 1.57 µM. For the same compound, the TGI (MALME-3M melanoma) was over 100 µM, the GI50 (RXF 393 renal) was 2.3 µM and the TGI (RXF 393 renal) was over 100 µM. For the same compound, the GI50 (NCI-H460 lung) was 1.18 µM, the TGI (NCI-H460 lung) was 22.1 µM and the GI50 (HT29 colon) was 1.23 µM. The TGI (HT29 colon) was 5.07 µM, the GI50 (786-0 renal) was 0.628 µM and the TGI (786-0 renal) was over 100 µM. For the same compound, the GI50 (MOLT-4 leukemia) was 3.19 µM, the TGI (MOLT-4 leukemia) was over 100 µM and the GI50 (CAKI-1 renal) was 0.909 µM. The TGI (CAKI-1 renal) was over 100 µM, the GI50 (A549 NSCLC) was 2.86 µM and the TGI (A549 NSCLC) was over 100 µM. The GI50 (NCI-H226 lung) was 2.67 µM, the TGI (NCI-H226 lung) was 9.75 µM and the GI50 (OVCAR-3 ovarian) was 0.601 µM. For the same compound, the TGI (OVCAR-3 ovarian) was 3.36 µM, the GI50 (IGROV1 ovarian) was 3.53 µM and the TGI (IGROV1 ovarian) was over 100 µM. For the same compound, the GI50 (DU-145 prostate) was 3.05 µM, the TGI (DU-145 prostate) was 51.6 µM and the GI50 (TK-10 renal) was 6.48 µM. The TGI (TK-10 renal) was over 100 µM, the GI50 (UACC-62 melanoma) was 2.06 µM and the TGI (UACC-62 melanoma) was over 100 µM. It also gave a GI50 (OVCAR-5 ovarian) of 3.18 µM, a TGI (OVCAR-5 ovarian) of over 100 µM and a GI50 (NCI-H23 lung) of 3.44 µM. For the same compound, the TGI (NCI-H23 lung) was over 100 µM, the GI50 (U251 CNS) was 3.61 µM and the TGI (U251 CNS) was over 100 µM. The GI50 (COLO 205 colon) was 1.75 µM, the TGI (COLO 205 colon) was 10.3 µM and the GI50 (HCT-15 colon) was 2.43 µM. For the same compound, the TGI (HCT-15 colon) was over 100 µM, the GI50 (EKVX NSCLC) was 2.92 µM and the TGI (EKVX NSCLC) was over 100 µM. The GI50 (ACHN renal) was 4.26 µM, the TGI (ACHN renal) was over 100 µM and the GI50 (SW-620 colon) was 0.537 µM. For the same compound, the TGI (SW-620 colon) was over 100 µM, the GI50 (MDA-MB-468 breast) was 0.429 µM and the TGI (MDA-MB-468 breast) was over 100 µM. The GI50 (UACC-257 melanoma) was 8.67 µM, the TGI (UACC-257 melanoma) was over 100 µM and the GI50 (KM12 colon) was 1.54 µM. It also gave a TGI (KM12 colon) of over 100 µM, a GI50 (SF-539 CNS) of 1.61 µM and a TGI (SF-539 CNS) of 4.82 µM. It also gave a GI50 (MCF7 breast) of 0.465 µM, a TGI (MCF7 breast) of over 100 µM and a GI50 (SK-MEL-28 melanoma) of 4.6 µM. The TGI (SK-MEL-28 melanoma) was over 100 µM, the GI50 (T-47D breast) was 3.32 µM and the TGI (T-47D breast) was over 100 µM. For the same compound, the GI50 (OVCAR-8 ovarian) was 3.16 µM, the TGI (OVCAR-8 ovarian) was 28.1 µM and the GI50 (A498 renal) was 26.1 µM. It also gave a TGI (A498 renal) of over 100 µM, a GI50 (SR leukemia) of 0.537 µM and a TGI (SR leukemia) of over 100 µM. The GI50 (SK-OV-3 ovarian) was 4.69 µM, the TGI (SK-OV-3 ovarian) was over 100 µM and the GI50 (LOX IMVI melanoma) was 2.78 µM. The TGI (LOX IMVI melanoma) was over 100 µM, the GI50 (OVCAR-4 ovarian) was 12.8 µM and the TGI (OVCAR-4 ovarian) was over 100 µM. The GI50 (HCT-116 colon) was 0.439 µM, the TGI (HCT-116 colon) was over 100 µM and the GI50 (CCRF-CEM leukemia) was 1.04 µM. It also gave a TGI (CCRF-CEM leukemia) of over 100 µM, a GI50 (SF-295 CNS) of 1.5 µM and a TGI (SF-295 CNS) of 30.7 µM.
